Experiments:
Parameters in all cases: species or system human
[1] = High humidity test, hair tress area change; settings: 3× bleached hair, 65% RH, vs untreated bleached hair
Procedure: In this method, hair tresses are exposed to high humidity at 65% RH at 25° C. for 30 min and the area of hair tresses before and after exposure to humidity is quantified using Image J application.

[2] = Modified Lowry Protein Assay, hair protein loss
Procedure: In addition, surface repair benefits from the PA or PA-GL treatments were evaluated by a protein loss assay. It is known that hair cuticle damage after various chemical treatments such as bleaching and perming results in a higher protein loss. To quantify the protein loss before and after treatments, a Modified Lowry Protein Assay was employed. In this method, a Lowry assay (Pierce Modified Lowry Protein Assay Kit, working range is at 1-1500 μg/mL) followed by absorbance measurement using UV-Visible Spectrophotometer (λmax at 740-760 nm) is used to quantify hair protein loss for a sample size of 250 mg of hair in 4 mL of deionized water.

[3] = Relative hair diameter swelling by environmental scanning electron microscopy; settings: 3× bleached hair; 2 wt % PA pH 4-4.5, 30 min, blow dry; 10% to 95% RH
Procedure: All measurements were carried out using a FEI Quanta 200 FEG MKII scanning electron microscope, operating at 15 kV, with relative humidity ranging from 10% to 95%. Single source virgin brown hair was bleached three times to obtain a 3× bleached hair model (each bleaching was done with a mixture of bleaching powder (BW2) and 40V clear developer at 1:2 ratio for 1 hour at room temperature, followed by 30 s water rinse and air-dry at room temperature).

[4] = Differential wetting characterization (DWC), water contact angle
Procedure: In this method, a pair of hair fibers is mounted on an in-house built stage in a horizontal plane with a separation of ˜0.75 mm. A droplet of deionized water (1 μL) is then applied onto the fiber pair by using a micro syringe. The droplet is observed using a Nikon microscope under 5× magnification and the image is taken using the incorporated digital camera. In the image, the contact angles of the water droplet on the fiber pair are measured respectively using the Nikon Advance Research software. The relative surface hydrophobicity of the fiber pair is correlated to the resulting contact angles, of which the greater value indicates higher hydrophobicity. […]

[5] = Fracture patterns of fibers broken in Dia-stron tensile testing; settings: 3× bleached hair; 2 wt % PA pH 4-4.5, 10 min, blow dry (virgin 34%, bleached 6%)
Procedure: Depending on the level of hair damage, hair fibers may break with very different fracture patterns when pulling to break. […] Fracture patterns of fibers broken from Dia-stron tensile testing were examined under optical microscope to understand the relationship between fracture pattern and hair damage level. […] In contrast, when the bleached hair was treated with a 2 wt % PA aqueous solution at pH 4-4.5 for 10 min, followed by blow dry, 38% smooth fractures were observed, close to that for virgin hair, indicating effective internal hair structure repair and complete restore by PA.
Hair fracture patterns of 3× bleached and PA formulation treated fibers after Dia-stron tensile testing were also examined and compared to those for virgin and bleached hair.

[6] = Dia-Stron single fiber mechanical testing at wet stage
Description: Additionally, the strengthening benefits of PA and PA-GL blend treatments were confirmed by Dia-Stron single fiber mechanical testing at wet stage. For wet stage single fiber method, hair fibers (≥20 fibers per treatment) at 30 mm length are fixed by 2 brass crimps at the ends and mounted on a Dia-stron tray. Initial dimension measurements are collected using a Dia-Stron FDAS770 (double ended samples, sample size of 30 mm, no of slices of 5 under one rotation per slice), followed by equilibration in Deionized water for at least 2 h prior to testing. All fiber tensile measurements are performed using a Dia-Stron MTT686/MTT690 (under 100% extension at gauge force of 2N, break threshold of 5 g, rate of 20 mm/min, maximum force of 2000 gmf and premature failure threshold of 10% strain).

[7] = Differential scanning calorimetry (DSC) of hair, denaturation temperature (Td); settings: for hair denaturation temperature: post-treatment pH 2, 5 min
Procedure: To explore treatment with PA and PA-GL, studies were performed using 3× bleached hair as a damaged hair model (each bleaching was done with a mixture of Bleaching powder (BW2) and 40V clear developer at 1:2 ratio, for 1 hour at room temperature). […] Differential scanning calorimetry (DSC) was performed on tresses at wet stage to determine the effect of phytic acid treatment on hair denaturation temperatures (Td). For wet stage DSC, a hair sample of 3-5 mg in 50 μL Deionized water sealed and equilibrated (overnight) in a stainless steel pressure resistant high-volume pan is heated from 25° C. to 180° C. at a 5 ° C./min heating rate. […] The heat damaged hair was prepared by subjecting virgin brown hair to 4 cycles of heat treatments. In each cycle, hair was treated with Deionized water (1 mL per 1.5 g of hair), massaged for 30 s followed by heat treatment (blow dry until dry at medium heat setting, flat iron at 450° F. for 10 strokes at a rate of 10 seconds per stroke from root to tip). At the end of 4 cycles of heat treatments, the hair tress is dialyzed overnight in Deionized water and air dried before DSC testing. The PA treatment on the heat damaged hair was performed using a 2 wt % PA aqueous solution at pH 4.5 for 30 min followed by blow dry. […] The heat protection benefit provided by PA using DSC was also explored, for which virgin hair with or without PA pre-treatment was subjected to 3 cycles of heat treatments. A virgin control sample was also added for comparison, which was prepared by treating the virgin brown hair with Deionized water (1 mL per 1.5 g of hair), massaged 30 seconds and air dried. For each heat treatment cycle, hair sample was blow dried until dry at medium heat setting, and flat ironed at 450° F. for 10 strokes at a rate of 10 seconds per stroke from root to tip. After three cycles of heat treatments, hair samples were dialyzed overnight in DI water and air dried before DSC testing. […] To explore strengthening benefits of PA in a hair care formulation, a PA formulation containing 0.75 wt % PA at pH 4-4.5 was used as an example. The 3× bleached hair was treated with 0.25 g of the PA formulation for 10 min followed by blow dry. Differential scanning calorimetry was performed on tresses to determine the effect of phytic acid treatment on hair denaturation temperatures (Td). […] The heat damaged hair was prepared by subjecting virgin brown hair to 4 cycles of heat treatments. In each cycle, hair was treated with Deionized water (1 mL per 1.5 g of hair), massaged for 30 s followed by heat treatment (blow dry until dry at medium heat setting, flat iron at 450° F. for 10 strokes at a rate of 10 seconds per stroke from root to tip). At the end of 4 cycles of the heat treatments, the hair tress is dialyzed overnight in Deionized water and air dried before DSC testing. […] Furthermore, the capability of PA formulation to protect hair from future chemical treatments (bleaching and coloring) was explored. In this study, two sets of treatments were performed and for each set three replicates were included. In Set I, a virgin tress was bleached once (1st bleach), followed by 12 cycles of shampoo and conditioner washes, then another bleach (2nd bleach). In Set II, similar bleaching and washing process was taken except that the tress was treated with PA formulation after the 1st bleach and 3rd, 6th, 9th, and 12th wash. In both bleaching steps, hair was treated with a mixture of BW2 bleaching powder and clear 30 V developer (1:1.5 ratio, 5 g per 1.5 g of hair) for 20 min under heat (high heat setting in a Belvedere hooded dryer), followed by 30 s water rinse and air dry at room temperature. The hair denaturation temperature (Td) was collected after each bleach treatment and every 3 washing cycles. […] Heat protection provided by the PA formulation using DSC was also explored. Here, three groups of hair samples were compared: virgin, heat control, and PA formulation treated. […]

[8] = 3× bleached hair, 2 wt % solution, heat styling (blow dry or flatiron)
[9] = bleached hair, PA at 2, 5 or 15 wt % in Restore Repair Leave-In conditioner, flatiron
[10] = bleached hair, treatment pH 2 to 5, flatiron
[11] = colored hair, post-treatment, blow dry
[12] = more damaged model (2× bleached at 45° C.), 2 wt % PA pH 2, 1 hour

## O=P(O)(O)O[C@H]1[C@H](OP(=O)(O)O)[C@@H](OP(=O)(O)O)[C@H](OP(=O)(O)O)[C@@H](OP(=O)(O)O)[C@H]1OP(=O)(O)O [PA, phytic acid]
[1]; 25° C., 30 min
  hair tress area increase: much less area increase
[1]
  difference in area increase after 7 shampoo and conditioner washing cycles: remained significant
[2]; 3× bleached hair, vs untreated bleached hair (6.6 mg/g hair)
  reduction of protein loss: 27%
[2]; ATG-reduced hair (7.9 mg/g hair untreated)
  reduction of protein loss: 58%
[3]
  relative diameter swelling rate: greatly reduced, even lower than virgin hair
[4]; 3× bleached hair, vs untreated bleached hair
  increase in water contact angle: 5 °
[4]; ATG-reduced hair
  increase in water contact angle: 5 °
[4]; colored hair
  increase in water contact angle: 5 °
[5]
  smooth fractures: 38%
[6]; [8]
  Young's modulus: greatly improved
  break stress: greatly improved
[6]; 3× bleached hair, PA 0.1 to 20 wt %, 15 min, heat styling
  PA concentration at which significant improvement in Young's modulus and break stress was achieved: ≥ 2 wt %
[6]; [9]
  Young's modulus: significant increases
  break stress: significant increases
[6]; [10]
  Young's modulus: greatly improved
  break stress: greatly improved
[6]; [11]
  Young's modulus: greatly improved
  break stress: greatly improved
[6]; [12]
  Young's modulus: greatly improved
  break stress: greatly improved
[7]; 3× bleached hair treated with 2 wt % PA aqueous solution
  Td after 10 shampoo and conditioner washing cycles: ≥ 149 °C
[7]; 3× bleached hair, 2 wt % aqueous solution pH 2, 15 min, heat styling, vs virgin hair
  hair denaturation temperature (Td): fully recovered to the virgin level
[7]; 3× bleached hair, PA at 2 wt % or higher concentration, vs virgin hair
  denaturation temperature: recovered back to or even beyond the virgin level
[7]; ATG-reduced hair, blow dry, vs virgin hair
  hair denaturation temperature: recovered to the level of virgin hair
[7]; colored 3× bleached hair, blow dry
  hair denaturation temperature: recovers to the level of the virgin hair
[7]; heat damaged hair (4 heat cycles), 2 wt % PA pH 4.5, 30 min, blow dry
  recovery in Td: 5 °C
[7]; treated after 1st bleach (Set II)
  immediate improvement in Td: 3 °C
[7]; treated after 1st bleach and 3rd, 6th, 9th, 12th wash, vs virgin level
  Td over 12 washing cycles and after 2nd bleach: remained above the virgin level
[7]; virgin hair treated before each heat treatment (flat iron 450° F.), heat control 7° C. decrease
  Td after 3 heating cycles: same Td as virgin hair
[7]; virgin hair with PA pre-treatment, heat protection
  change in Td upon 3 cycles of heat treatments: didn't show any significant change

Reference: patent publication US20230075937A1, “METHODS FOR STRENGTHENING AND REPAIRING HAIR” (Living Proof, Inc., priority 2021, published 2023)
